Measured values published in US20210348164A1, “ENDOGENOUS CYTOPLASMIC ALU COMPLEMENTARY DNA IN AGE-RELATED MACULAR DEGENERATION” (University of Virginia Patent Foundation, priority 2018, published 2021).
Entries after “also recorded” stand apart in the source; their conditions may differ.

Key:
[1] = test system: Alu G25C RNA-induced RPE degeneration; test: Alu G25C RNA-induced RPE degeneration in wild-type mice; format: in vivo, mouse; details: WT mice; subretinal Alu G25C RNA
[2] = test system: reverse transcriptase activity of cytoplasmic fractions of F9 cells; test: In vitro reverse transcriptase activity of cytoplasmic fractions (Alu RNA-templated, Alu-specific qPCR); format: biochemical, mouse
Method: In vitro reverse transcriptase (RT) activity. In vitro reverse transcriptase (RT) activity in nuclear and cytoplasmic protein fractions was assessed using an Alu RNA-templated reaction. The RT reaction was carried out in a 20 μl reaction mix containing Alu RNA template (10 ng); Alu primer ([…]); dNTPs mix; cytoplasmic or nuclear protein, and Quantiscript RT Buffer (Qiagen). The reaction mixture was incubated at 42° C. for 30 minutes. The resulting cDNA was quantified by qPCR using Alu RNA template-specific primers. The reaction to evaluate self-priming activity of Alu RNA was carried out in the absence of priming oligos in a 20 μl reaction mix containing: Alu RNA with 3′-U tail; dNTP mix; cytoplasmic protein from mouse RPE cells; and Quantiscript RT Buffer (Qiagen) as described above. The resulting cDNA product was quantified by qPCR using Alu RNA template-specific primers. Alu RNA tailed on the 3′ end with chain terminator dideoxy thymidine base (ddTTP) was generated using TdT (New England Biolabs (NEB)) according to the manufacturer's instructions. Alu RNA tailed on the 3′ end with chain terminator cordycepin tri-phosphate was generated using PAP (NEB) according to the manufacturer's instructions.

[3] = test system: L1 ORF2 reverse transcriptase activity; test: Alu cDNA formation in Oryzomys RPE cells with enforced L1 ORF2 expression (Alu-specific qPCR of cytoplasmic fractions); format: cell-based, rat L1 ORF2 in Oryzomys palustris RPE cells; details: high-dose
Method: Subretinal and intravitreous injections. Subretinal injections (1 μl for mice, 3 μl for rat) or intravitreous injections (0.5 μl for mice, 2 μl for rat) in mice or rat were performed using a 35-gauge needle (Ito Co. Fuji, Japan). In vivo transfection of Alu RNA or mutant Alu RNA (3.6-300 ng per eye); Alu complementary DNA (cDNA; 0.0036-90 ng per eye); Alu reverse sequence cDNA (3.6-90 ng per eye); or 7SL cDNA (3.6-90 ng per eye) was performed using 10% NEUROPORTER™ transfection reagent (Genlantis, San Diego, Calif., United States of America) as previously described (Kaneko et al., 2011; Tarallo et al., 2012). 3TC, TM-3TC, Cpep-3TC, Cpep, PA-4 3TC, EFV, DLV, or NVP (50 μM/1 μl or 500 μM/1 μl) were administered by intravitreous injection (Mandal et al., 2011; Nasrolahi et al., 2013). […]
Alu cDNA detection by real-time PCR. […] Then samples were directly amplified by real-time quantitative PCR (7900 HT Fast Real-Time PCR system, Applied Biosystems, Foster City, Calif., United States of America) with Power SYBR Green Master Mix. […] The copy number of Alu cDNA was calculated using standard curves that were obtained using serial dilutions of the plasmids containing an Alu Y sequence. […]

[4] = test system: L1 ORF2p-facilitated Alu RNA-induced RPE degeneration; test: Alu RNA-induced RPE degeneration in L1 ORF2-expressing Oryzomys palustris; format: in vivo; details: high dose (500 μmol)
Method: Assessment of RPE degeneration. Subretinal injections were performed as previously described (Kaneko et al., 2011; Tarallo et al., 2012; Kerur et al., 2013; Fowler et al., 2014; Kim et al., 2014). Seven days after subretinal injection, RPE health was assessed by fundus photography and immunofluorescence staining of zonula occludens-1 (ZO-1) on RPE flat mounts (whole mount of posterior eye cup containing RPE and choroid layers). Mouse RPE/choroid flat mounts were fixed with 2% paraformaldehyde, stained with rabbit polyclonal antibodies against mouse ZO-1 (1:100; Invitrogen Corp. Carlsbad, Calif., United States of America) and visualized with Alexa-594 (Invitrogen Corp.). […]
Quantification of RPE degeneration. Quantification of RPE degeneration was performed using two methodologies (binary assignment and cellular morphometry) as described previously (Kerur et al., 2018): Binary assignment (healthy versus unhealthy; Kerur et al., 2013; Fowler et al., 2014; Kim et al., 2014; Kerur et al., 2018) was independently performed by two blinded raters (inter-rater agreement=99.7%; Pearson r2=0.986, P<0.0001; Fleiss x=0.993, P<0.0001). […]

L1 siRNA: siRNA targeting L1; cholesterol-conjugated mouse L1 siRNA (SEQ ID NOs: 48 and 49) in vivo, human L1 siRNA sequences in human cells (chain 1 ACUAUUACUCUGAUACCTT; chain 2 UGUACUAAGGUCAAAUCTT; cholesterol conjugated, position not given here)
Alu G25C RNA-induced RPE degeneration [1]: prevented Alu G25C RNA-induced RPE degeneration | Alu cDNA formation from Alu RNA (reverse transcriptase activity) [2]: reduced Alu cDNA production; also recorded: reduced Alu cDNA formation

O=C1Nc2ccc(Cl)cc2[C@@](C#CC2CC2)(C(F)(F)F)O1 [EFV, efavirenz]
Formation of Alu cDNA following Alu RNA transfection [3]: inhibited

CC(C)Nc1cccnc1N1CCN(C(=O)c2cc3cc(NS(C)(=O)=O)ccc3[nH]2)CC1 [DLV, delavirdine]
Alu RNA-induced RPE degeneration [4]: blocked
